{"source": "ChEMBL document CHEMBL1138106", "about": "“The discovery of a potent and selective lethal factor inhibitor for adjunct therapy of anthrax infection” (Bioorg Med Chem Lett, 2006)", "key": {"[1]": {"target": "T1, Lethal factor (Bacillus anthracis, UniProt P15917)", "T1 sequence (P15917 whole entry)": "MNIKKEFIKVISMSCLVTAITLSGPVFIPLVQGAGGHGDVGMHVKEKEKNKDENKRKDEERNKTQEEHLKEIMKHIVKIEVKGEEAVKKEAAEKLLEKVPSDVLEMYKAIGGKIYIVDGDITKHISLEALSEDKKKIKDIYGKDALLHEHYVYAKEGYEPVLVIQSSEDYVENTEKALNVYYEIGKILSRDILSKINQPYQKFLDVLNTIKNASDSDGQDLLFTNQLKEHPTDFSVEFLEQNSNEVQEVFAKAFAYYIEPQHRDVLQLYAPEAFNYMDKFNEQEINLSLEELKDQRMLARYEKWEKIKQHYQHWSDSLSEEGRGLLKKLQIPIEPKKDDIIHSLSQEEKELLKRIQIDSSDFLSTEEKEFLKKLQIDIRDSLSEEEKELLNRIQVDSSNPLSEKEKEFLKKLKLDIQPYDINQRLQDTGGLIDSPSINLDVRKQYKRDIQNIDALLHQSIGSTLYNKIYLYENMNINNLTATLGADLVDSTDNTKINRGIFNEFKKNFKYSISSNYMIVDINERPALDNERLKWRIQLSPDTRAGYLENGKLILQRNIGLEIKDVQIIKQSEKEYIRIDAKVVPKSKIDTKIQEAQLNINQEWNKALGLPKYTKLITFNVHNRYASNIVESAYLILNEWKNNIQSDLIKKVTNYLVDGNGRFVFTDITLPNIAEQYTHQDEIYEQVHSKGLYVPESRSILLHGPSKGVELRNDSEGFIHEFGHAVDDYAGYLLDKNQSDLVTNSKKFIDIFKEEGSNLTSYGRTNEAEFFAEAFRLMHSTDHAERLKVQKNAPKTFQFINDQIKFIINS", "test": "Inhibition of LF", "conditions": "read-out: IC50"}, "[2]": {"target": "72 kDa type IV collagenase (Homo sapiens, UniProt P08253)", "sequence (P08253 whole entry)": "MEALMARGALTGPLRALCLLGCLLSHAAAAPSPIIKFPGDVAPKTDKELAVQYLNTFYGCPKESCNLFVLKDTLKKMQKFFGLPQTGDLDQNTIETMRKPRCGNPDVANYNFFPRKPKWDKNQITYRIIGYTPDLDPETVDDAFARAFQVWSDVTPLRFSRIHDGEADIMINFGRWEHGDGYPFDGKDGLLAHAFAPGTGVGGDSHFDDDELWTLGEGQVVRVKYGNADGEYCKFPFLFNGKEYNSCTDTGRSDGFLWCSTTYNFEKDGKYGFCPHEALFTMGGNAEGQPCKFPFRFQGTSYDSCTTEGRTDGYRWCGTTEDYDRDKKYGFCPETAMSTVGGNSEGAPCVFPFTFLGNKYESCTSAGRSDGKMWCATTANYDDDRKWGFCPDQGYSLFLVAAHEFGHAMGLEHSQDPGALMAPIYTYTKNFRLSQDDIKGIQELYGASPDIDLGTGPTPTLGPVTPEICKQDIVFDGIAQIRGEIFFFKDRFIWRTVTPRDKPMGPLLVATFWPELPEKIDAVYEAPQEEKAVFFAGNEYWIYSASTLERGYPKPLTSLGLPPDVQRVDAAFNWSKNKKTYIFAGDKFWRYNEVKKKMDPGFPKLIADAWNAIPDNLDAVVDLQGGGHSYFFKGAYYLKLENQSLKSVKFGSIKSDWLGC", "test": "Inhibition of MMP2"}, "[3]": {"target": "Stromelysin-1 (Homo sapiens, UniProt P08254)", "sequence (P08254 whole entry)": "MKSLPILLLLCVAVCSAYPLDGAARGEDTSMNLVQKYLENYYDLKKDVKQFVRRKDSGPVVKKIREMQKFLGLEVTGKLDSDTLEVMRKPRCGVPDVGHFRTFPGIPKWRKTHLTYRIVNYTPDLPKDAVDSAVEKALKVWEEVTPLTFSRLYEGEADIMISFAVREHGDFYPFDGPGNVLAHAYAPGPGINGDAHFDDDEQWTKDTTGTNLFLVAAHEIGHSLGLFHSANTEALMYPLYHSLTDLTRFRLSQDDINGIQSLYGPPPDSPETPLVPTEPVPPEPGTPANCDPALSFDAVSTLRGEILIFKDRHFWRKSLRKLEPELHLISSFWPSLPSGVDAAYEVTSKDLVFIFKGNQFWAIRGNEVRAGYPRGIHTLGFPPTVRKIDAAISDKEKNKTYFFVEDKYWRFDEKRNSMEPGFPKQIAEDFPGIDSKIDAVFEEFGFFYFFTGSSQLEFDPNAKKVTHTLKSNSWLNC", "test": "Inhibition of MMP3"}, "[4]": {"target": "Matrix metalloproteinase-9 (Homo sapiens, UniProt P14780)", "sequence (P14780 whole entry)": "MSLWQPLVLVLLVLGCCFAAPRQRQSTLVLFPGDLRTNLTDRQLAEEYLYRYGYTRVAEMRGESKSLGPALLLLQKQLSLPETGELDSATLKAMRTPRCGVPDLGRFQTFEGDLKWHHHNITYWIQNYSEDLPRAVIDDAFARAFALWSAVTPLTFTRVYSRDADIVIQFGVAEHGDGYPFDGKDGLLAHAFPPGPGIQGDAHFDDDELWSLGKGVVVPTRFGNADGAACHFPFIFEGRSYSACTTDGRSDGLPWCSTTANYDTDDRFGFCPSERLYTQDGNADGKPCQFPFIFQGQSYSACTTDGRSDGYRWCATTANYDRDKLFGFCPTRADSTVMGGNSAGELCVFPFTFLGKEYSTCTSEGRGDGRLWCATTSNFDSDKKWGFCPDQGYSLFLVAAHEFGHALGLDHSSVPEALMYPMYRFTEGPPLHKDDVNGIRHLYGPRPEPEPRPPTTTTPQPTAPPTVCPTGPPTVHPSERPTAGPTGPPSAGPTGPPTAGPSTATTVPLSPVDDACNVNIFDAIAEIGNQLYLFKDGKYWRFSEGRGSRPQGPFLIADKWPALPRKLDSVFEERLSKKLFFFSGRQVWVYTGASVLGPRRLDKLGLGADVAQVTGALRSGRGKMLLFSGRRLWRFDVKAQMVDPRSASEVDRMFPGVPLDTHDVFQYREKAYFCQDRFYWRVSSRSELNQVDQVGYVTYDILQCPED", "test": "Inhibition of MMP9"}, "[5]": {"test": "Solubility in water", "type": "physicochemical"}, "[6]": {"test": "Volume of distribution in BALB/c mice at 10 mg/kg, iv", "type": "ADME, organism-based", "parameters": "dose 10 mg/kg, route intravenous", "conditions": "mouse, in vivo, read-out: Vdss"}, "[7]": {"test": "Tmax in BALB/c mice at 10 mg/kg, iv", "type": "ADME, organism-based", "parameters": "dose 10 mg/kg, route intravenous", "conditions": "mouse, in vivo"}, "[8]": {"test": "Clearance in Sprague-Dawley rat at 1 mg/kg, iv", "type": "ADME, organism-based", "parameters": "dose 1 mg/kg, route intravenous", "conditions": "in vivo"}, "[9]": {"test": "Volume of distribution in Sprague-Dawley rat at 1 mg/kg, iv", "type": "ADME, organism-based", "parameters": "dose 1 mg/kg, route intravenous", "conditions": "in vivo, read-out: Vdss"}, "[10]": {"test": "Half life in Sprague-Dawley rat at 1 mg/kg, iv", "type": "ADME, organism-based", "parameters": "dose 1 mg/kg, route intravenous", "conditions": "in vivo"}, "[11]": {"test": "Half life in rhesus monkey at 1 mg/kg, iv", "type": "ADME, organism-based, Macaca mulatta", "parameters": "dose 1 mg/kg, route intravenous", "conditions": "in vivo"}, "[12]": {"test": "Bioavailability in rhesus monkey […], po", "type": "ADME, organism-based, Macaca mulatta", "conditions": "in vivo"}, "[13]": {"test": "Cmax in Sprague-Dawley rat at 1 mg/kg, iv", "type": "ADME, organism-based", "parameters": "dose 1 mg/kg, route intravenous", "conditions": "in vivo"}, "[14]": {"test": "Bioavailability in Sprague-Dawley rat […], po", "type": "ADME, organism-based", "conditions": "in vivo"}, "[15]": {"test": "Clearance in Guinea pig at 2 mg/kg, iv", "type": "ADME, organism-based, Cavia porcellus", "parameters": "dose 2 mg/kg, route intravenous", "conditions": "in vivo"}, "[16]": {"test": "Cmax in Guinea pig at 2 mg/kg, iv", "type": "ADME, organism-based, Cavia porcellus", "parameters": "dose 2 mg/kg, route intravenous", "conditions": "in vivo"}, "[17]": {"test": "Tmax in Guinea pig at 2 mg/kg, iv", "type": "ADME, organism-based, Cavia porcellus", "parameters": "dose 2 mg/kg, route intravenous", "conditions": "in vivo"}, "[18]": {"test": "Bioavailability in Guinea pig at 1 mg/ml, po", "type": "ADME, organism-based, Cavia porcellus", "conditions": "in vivo"}, "[19]": {"test": "Volume of distribution in Dutch Belted rabbit at 2 mg/kg, iv", "type": "ADME, organism-based, Oryctolagus cuniculus", "parameters": "dose 2 mg/kg, route intravenous", "conditions": "in vivo, read-out: Vdss"}, "[20]": {"test": "Half life in Dutch Belted rabbit at 2 mg/kg, iv", "type": "ADME, organism-based, Oryctolagus cuniculus", "parameters": "dose 2 mg/kg, route intravenous", "conditions": "in vivo"}, "[21]": {"test": "Tmax in Dutch Belted rabbit at 2 mg/kg, iv", "type": "ADME, organism-based, Oryctolagus cuniculus", "parameters": "dose 2 mg/kg, route intravenous", "conditions": "in vivo"}, "[22]": {"test": "Bioavailability in Dutch Belted rabbit […], po", "type": "ADME, organism-based, Oryctolagus cuniculus", "conditions": "in vivo"}, "[23]": {"test": "Volume of distribution in New Zealand White rabbit at 5 mg/kg, iv", "type": "ADME, organism-based, Oryctolagus cuniculus", "parameters": "dose 5 mg/kg, route intravenous", "conditions": "in vivo, read-out: Vdss"}, "[24]": {"test": "Volume of distribution in Beagle dog at 1 mg/kg, iv", "type": "ADME, organism-based, Canis lupus familiaris", "parameters": "dose 1 mg/kg, route intravenous", "conditions": "in vivo, read-out: Vdss"}, "[25]": {"test": "Half life in Beagle dog at 1 mg/kg, iv", "type": "ADME, organism-based, Canis lupus familiaris", "parameters": "dose 1 mg/kg, route intravenous", "conditions": "in vivo"}, "[26]": {"test": "Cmax in Beagle dog at 1 mg/kg, iv", "type": "ADME, organism-based, Canis lupus familiaris", "parameters": "dose 1 mg/kg, route intravenous", "conditions": "in vivo"}, "[27]": {"test": "Clearance in rhesus monkey at 1 mg/kg, iv", "type": "ADME, organism-based, Macaca mulatta", "parameters": "dose 1 mg/kg, route intravenous", "conditions": "in vivo"}}, "data": [{"smiles": "Cc1cc(S(=O)(=O)N[C@@H](C(=O)NO)C2CCOCC2)ccc1F", "values": [{"measurement": "IC50", "setting": "[1]", "result": 0.054, "unit": "µM"}, {"measurement": "IC50", "setting": "[2]", "result": 2, "unit": "µM"}, {"measurement": "IC50", "setting": "[3]", "result": 1.4, "unit": "µM"}, {"measurement": "IC50", "setting": "[4]", "result": 2, "unit": "µM"}, {"measurement": "solubility", "setting": "[5]", "result": 2500, "unit": "µg/mL"}, {"measurement": "Vd", "setting": "[6]", "result": 1, "unit": "L/kg"}, {"measurement": "Tmax", "setting": "[7]", "result": 0.3, "unit": "h"}, {"measurement": "clearance", "setting": "[8]", "result": 80, "unit": "mL/min/kg"}, {"measurement": "Vd", "setting": "[9]", "result": 3.9, "unit": "L/kg"}, {"measurement": "half-life", "setting": "[10]", "result": 1.4, "unit": "h"}, {"measurement": "half-life", "setting": "[11]", "result": 2.4, "unit": "h"}, {"measurement": "bioavailability", "setting": "[12]", "result": 16, "unit": "%"}, {"measurement": "Cmax", "setting": "[13]", "result": 240, "unit": "nM"}, {"measurement": "bioavailability", "setting": "[14]", "result": 51, "unit": "%"}, {"measurement": "clearance", "setting": "[15]", "result": 24, "unit": "mL/min/kg"}, {"measurement": "Cmax", "setting": "[16]", "result": 250, "unit": "nM"}, {"measurement": "Tmax", "setting": "[17]", "result": 0.8, "unit": "h"}, {"measurement": "bioavailability", "setting": "[18]", "result": 22, "unit": "%"}, {"measurement": "Vd", "setting": "[19]", "result": 1.5, "unit": "L/kg"}, {"measurement": "half-life", "setting": "[20]", "result": 2, "unit": "h"}, {"measurement": "Tmax", "setting": "[21]", "result": 0.3, "unit": "h"}, {"measurement": "bioavailability", "setting": "[22]", "result": 0.5, "unit": "%"}, {"measurement": "Vd", "setting": "[23]", "result": 3.8, "unit": "L/kg"}, {"measurement": "Vd", "setting": "[24]", "result": 2.4, "unit": "L/kg"}, {"measurement": "half-life", "setting": "[25]", "result": 4.7, "unit": "h"}, {"measurement": "Cmax", "setting": "[26]", "result": 730, "unit": "nM"}, {"measurement": "clearance", "setting": "[27]", "result": 23, "unit": "mL/min/kg"}]}]}
